Data published in patent US20030180295A1, “Angiocidin: a Cys-Ser-Val-Thr-Cys-Gly specific tumor cell adhesion receptor” (Philadelphia Health and Education Corporation, priority 1999, published 2003).

How the values were obtained:
[1] = test system: Bovine aortic endothelial cells (BAEC); assay: Collagen matrix angiogenesis assay (microvessel formation); type: cell-based; settings: 37 μg/ml, 24 hours
Description: An experiment was performed to evaluate the effect of angiocidin on angiogenesis. Bovine aortic endothelial cells (BAEC) were plated on a collagen matrix. Next, the cells were over-layered with collagen. Angiocidin (37 μg/ml) was added on top of the cells in the treatment plate, and the control plate only received buffer. After 24 hours, phase contrast photomicrographs (200×) were taken. In the control plate, the BAEC cells rearranged themselves into a network of microvessels. […] This collagen assay is a well recognized model for angiogenesis. Qian et al., Thrombospondin-1 modulates angiogenesis in vitro by up-regulation of matrix metalloproteinase-9 in endothelial cells, Exp. Cell Res. 235:403-412 (1997).

[2] = test system: human umbilical vein endothelial cells (HUVEC); assay: ALAMAR BLUE cell viability assay; type: cell-based; settings: 24 hours
Description: Bovine aortic endothelial cells (BAEC), human umbilical vein endothelial cells (HUVEC), fibroblast cells, A549 human lung carcinoma cells (A549), MDA-MB231 human breast carcinoma cells (MB231), MCF7 human breast carcinoma cells (MCF7) were treated with 37 μg/ml of receptor, or buffer alone, for 24 hours. Viability of the cells was measured using the ALAMAR BLUE™ assay, which measures the capacity of cells to metabolize the ALAMAR BLUE™ dye. The ALAMAR BLUE™ assay (available from Biosource International, Camarillo, Calif.) quantitatively measures the proliferation of cell lines and can establish the relative cytotoxicity of chemical agents. The assay incorporates a fluorometric/colorimetric growth indicator based on detection of metabolic activity. The system incorporates an oxidation-reduction (redox) indicator that both fluoresces and changes color in response to chemical reduction of growth medium resulting from cell growth. This causes the redox indicator to change from its oxidized, non-fluorescent, blue form to its reduced, fluorescent, red form. Data can be collected using either fluorescence-based instrumentation (530-560 nm excitation wavelength and 590 nm emission wavelength) or absorbance-based instrumentation (570 nm and 600 nm).
Similarly, the effect of receptor on viability of BAEC cells was compared to mouse Lewis lung carcinoma cells, using the same method.
The effect of angiocidin on HUVEC cell viability was evaluated, and FGF and TSP-1 were added to determine whether they ameliorated the angiocidin effect on cell viability. FGF (Fibroblast Growth Factor) is an endothelial cell mitogen, which promotes cell growth. […] TSP-1 was expected to reverse the inhibition of angiocidin; however, quantities added may have been insufficient to provide the correct molar ratio.

Substance: angiocidin: Cys-Ser-Val-Thr-Cys-Gly (SEQ ID NO: 1)-specific thrombospondin (TSP-1) receptor protein; recombinant form of SEQ ID NO: 2 used in the Examples
- microvessel formation [1]: the microvessels did not form and the cells appeared dead
- cell viability ([2]; 0 to 37 μg/ml): decreasing their viability
- decrease of cell viability ([2]; 37 μg/ml): 70-80%
